Measured values taken from patent US20110118277A1, “METHOD OF TREATING LIVER DISEASE” (priority 2003, published 2011).

Legend:
VEGFR1 = test: Ribonuclease protection assay of whole liver RNA: VEGFR1; assay type: in vivo, mouse; details: RPA, normalized to GAPDH, mean±SEM of 4 mice, HMCDE diet
Procedure: (§1) Total […] was isolated from frozen liver samples according to the method of Chomczynski and Sacchi as described in Gastroenterology 2002; 123: 1304-1310. KNA concentration was determined by optical density and quality was assessed by agarose gel electrophoresis and ethidium bromide staining. Commercial ribonuclease protection assay (RPA) kits with probes for murine cytokines (PharMingen, San Diego, Calif.) were used to evaluate factors that might be involved in the recruitment and expansion of HPC after liver injury. The factors studied were Stem Cell Factor (SCF), Hepatocyte Growth Factor (HGF), Interleukin-7 (IL-7), IL-11, Leukaemia Inhibitory Factor (LEF), Granulocyte-Macrophage Colony Stimulating Factor (GM-CSF), Granulocyte Colony, Stimulating Factor (G-CSF), Vascular Endothelial Growth Factor (VEGF), and its receptors, VEGFR1 and VEGFR3. Details of the RPA are described in J Pathol 2003; 199:191-200.
(§2) Total RNA was isolated from frozen liver samples as described in Mech Dev 120: 117-130, 2003. RNA concentration was determined by optical density and quality assessed by agarose gel electrophoresis and ethidium bromide staining. […]
(§3) In Table 1, Total liver RNA was obtained from 4 mice per treatment group and analyzed by RPA 20 μg RNA sample from each mouse was evaluated. Results are normalized to concurrently assessed expression of GAPDH in the same RNA samples. […]

G-CSF = test: Ribonuclease protection assay of whole liver RNA: G-CSF; assay type: in vivo, mouse; details: RPA, normalized to GAPDH, mean±SEM of 4 mice, HMCDE diet
Procedure: as §1, §2, §3

VEGFR3 = test: Ribonuclease protection assay of whole liver RNA: VEGFR3; assay type: in vivo, mouse; details: RPA, normalized to GAPDH, mean±SEM of 4 mice, HMCDE diet
Procedure: as §1, §2, §3

VEGF = test: Ribonuclease protection assay of whole liver RNA: VEGF; assay type: in vivo, mouse; details: RPA, normalized to GAPDH, mean±SEM of 4 mice, HMCDE diet
Procedure: as §1, §2, §3

[1] = test system: bone marrow-derived hematopoietic progenitors; details: treatment of mice, shown hitherto; cited from earlier work
HGF = test: Ribonuclease protection assay of whole liver RNA: HGF; assay type: in vivo, mouse; details: for effect on HMCDE-induced increase of hepatic HGF expression: versus HMCDE alone; for Gene Expression HGF: whole liver RNA, RPA, normalized to GAPDH, mean±SEM of 4 mice, HMCDE diet
Procedure: as §1
Total RNA was isolated from frozen liver samples as described in Mech Dev 120: 117-130, 2003. RNA concentration was determined by optical density and quality assessed by agarose gel electrophoresis and ethidium bromide staining. Ribonuclease protection assay (RPA) kits with probes for murine cytokines (PharMingen, San Diego, Calif.) were used to evaluate factors that might be involved in the recruitment and expansion of HPC after liver injury. The factors studied were Stem Cell Factor (SCF), Hepatocyte Growth Factor ([…]), Interleukin-6 (IL-6), IL7, IL-11, Leukaemia Inhibitory Factor (LIF), Granulocyte-Macrophage Colony Stimulating Factor (GM-CSF), Macrophage Colony Stimulating Factor (M-CSF), Granulocyte Colony Stimulating Factor (G-CSF), Vascular Endothelial Growth Factor (VEGF), and its receptors, VEGFR1 and YEGFR3.
In Table 1, Total liver RNA was obtained from 4 mice per treatment group and analyzed by RPA 20 μg RNA sample from each mouse was evaluated. Results are normalized to concurrently assessed expression of GAPDH in the same RNA samples. Data shown are the mean±SEM results of 4 mice per treatment group. Similar results were obtained in a second experiment.

oval cells = test: Immunohistochemical count of hepatic oval cells (HPC) in HMCDE-fed mice; assay type: in vivo, mouse; details: FIGS. 4A-4C, immunohistochemistry (and flow cytometry), P<0.001
Procedure: Immunohistochemical analysis of HPC was performed with a mouse monoclonal OV6-type antibody (from Dr Stuart Sell, Albany Medical College, Albany, N.Y.) reacting with cytokeratins 14 and 19; a rabbit polyclonal antibody against 56 and 64 kD human callus cytokeratins (Dako, Denmark) and a rat monoclonal antibody to cytokeratin 19 as described Am J Pathol 2002; 161:521-530.
Details of the staining procedures are as described Am J Pathol 2002; 161:521-530. Briefly, 4 um thick paraffin sections were deparaffinized and rehydrated, followed by heating in a microwave oven for 10 minutes at 750 Watt in citrate buffer, pH 6.0. Incubation with the primary antibodies was performed at room temperature for 30 minutes. Mouse monoclonal OV6 antibody and rat anti-cytokeratin 19 were detected using the DAKO Animal Research Kit, peroxidase (Dako, Denmark). The rabbit polyclonal antibody against 56 and 64 kD human callus cytokeratins was detected by anti-rabbit Envision (Dako, Denmark) as described in J Pathol 2003; 199:191-200. […]
To evaluate the effect of treatments on the HPC compartment, coded samples were examined by an experienced liver pathologist blinded to treatment groups. For each liver section, the number of HPC in 5, randomly selected, non-overlapping, high power (×40 objective) fields was counted. […] Interlobular bile ducts were not considered progenitor cells and, thus, were not counted as such.

LIN^−ve/Thy-1^+ve cells = test: Flow cytometry of putative bone marrow-derived hepatic progenitors in liver of HMCDE-fed mice; assay type: in vivo, mouse; details: FIG. 4C, P<0.03 (PRZ), <0.05 (6-OHDA)
Source text: The hepatic non-parenchymal cell fraction, which contains the oval cell population and the NK-T cell populations, were isolated as described in Hepatology 1998; 27:433-455 and Gastroenterology 2002; 123:[…]. Briefly, livers were carefully removed and homogenized in Stomacher80 (Seawood, England). The homogenate was then passed through a 100-μm wire mesh and liver cells were collected by centrifugation at 450 g. Mononuclear cells were purified from this fraction by centrifugation at 900 g over 35% Percoll gradients (Amersham Pharmacia Biotech) and incubated with normal mouse serum (Sigma, St Louis, Mo.) and Fc-receptor block (anti-CD16/CD32) to prevent nonspecific binding, plus APC-conjugated anti-mouse Thy-1.2 (the C57BL-6 form of the Thy-1 antibody) and antibodies directed against hematopoietic lineage markers (LIN, a mix of anti-mouse CD4, CD8, CD3, CD45, CD19, Mac-1, Gr-1, Ter119). For NK-T cell labelling, the mononuclear cells were incubated with […] anti-mouse NK-1.1 and PE-conjugated anti-mouse CD3. […] After incubation, pellets were washed to remove unbound antibodies, fixed with 2% formaldehyde and evaluated by FACS (Becton Dickenson). […] Data was analyzed by Cell Quest software (Becton Dickenson) to determine changes in these cell populations in different treatment groups.

NCCc1cc(O)c(O)cc1O [6-OHDA, 6-hydroxydopamine]
Gene Expression VEGFR1 (VEGFR1): 0.4 ± 0.1 | Gene Expression G-CSF (G-CSF): 1.4 ± 0.3 | Gene Expression VEGFR3 (VEGFR3): 2.1 ± 1.0 | Gene Expression VEGF (VEGF): 2.3 ± 0.5 | mobilization of hematopoietic progenitors [1]: mobilize bone marrow-derived hematopoietic progenitors into the circulation | effect on HMCDE-induced increase of hepatic HGF expression (HGF): did not augment this response | Gene Expression HGF (HGF): 2.4 ± 0.75 | oval cell / HPC number versus HMCDE diet alone (oval cells): significantly augments diet-induced HPC expansion | LIN^−ve/Thy-1^+ve cells in liver versus HMCDE diet alone (LIN^−ve/Thy-1^+ve cells): more LIN^−ve/Thy-1^+ve cells

COc1cc2nc(N3CCN(C(=O)c4ccco4)CC3)nc(N)c2cc1OC [PRZ, prazosin]
Gene Expression VEGFR1 (VEGFR1): 0.2 ± 0.2 | Gene Expression G-CSF (G-CSF): 1.0 ± 0.3 | Gene Expression VEGFR3 (VEGFR3): 1.7 ± 0.4 | Gene Expression VEGF (VEGF): 1.4 ± 0.4 | mobilization of hematopoietic progenitors [1]: mobilize bone marrow-derived hematopoietic progenitors into the circulation | effect on HMCDE-induced increase of hepatic HGF expression (HGF): did not augment this response | Gene Expression HGF (HGF): 2.1 ± 0.30 | oval cell / HPC number versus HMCDE diet alone (oval cells): significantly augments diet-induced HPC expansion | LIN^−ve/Thy-1^+ve cells in liver versus HMCDE diet alone (LIN^−ve/Thy-1^+ve cells): more LIN^−ve/Thy-1^+ve cells
